System: HCV 1b genotype replicon
Assay: HCV Replicon Assay - qRT-PCR (HCV RNA detection)
Assay type: cell-based
Conditions: Hepatitis C virus, from the qRT-PCR or luciferase assay (not specified which), read-out: Genotype-1b replicon EC50 Range
From the text: HCV replicon cell lines (kindly provided by R. Bartenschlager) isolated from colonies as described by Lohman et. al. (Lohman et al. (1999) Science 285: 110-113, expressly incorporated by reference in its entirety) and used for all experiments. The HCV replicon has the nucleic acid sequence set forth in EMBL Accession No.: AJ242651, the coding sequence of which is from nucleotides 1801 to 8406.
The coding sequence of the published HCV replicon was synthesized and subsequently assembled in a modified plasmid pBR322 (Promega, Madison, Wis.) using standard molecular biology techniques. One replicon cell line (“SGR 11-7”) stably expresses HCV replicon RNA which consists of (i) the HCV 5′UTR fused to the first 12 amino acids of the capsid protein, (ii) the neomycin phosphotransferase gene (neo), (iii) the IRES from encephalomyocarditis virus (EMCV), and (iv) HCV NS2 to NS5B genes and the HCV 3′UTR. Another replicon cell line (“Huh-luc/neo-ET”) described by Vrolijk et. al. (Vrolijk et. al. (2003) Journal of Virological Methods 110:201-209, expressly incorporated by reference in its entirety) stably expresses HCV replicon RNA which consists of (i) the HCV 5′UTR fused to the first 12 amino acids of the capsid protein, (ii) the firefly luciferase reporter gene, (iii) the ubiquitin gene, (iv) the neomycin phosphotransferase gene (neo), (v) the IRES from encephalomyocarditis virus (EMCV), and (vi) HCV NS3 to NS5B genes that harbor cell culture adaptive mutations (E1202G, T1280I, K1846T) and the HCV 3′UTR.
These cell lines were maintained at 37° C., 5% CO2, 100% relative humidity in DMEM (Cat #11965-084, Invitrogen), with 10% fetal calf serum (“FCS”, Invitrogen), 1% non-essential amino acids (Invitrogen), 1% of Glutamax (Invitrogen), 1% of 100× penicillin/streptomycin (Cat #15140-122, Invitrogen) and Geneticin (Cat #10131-027, Invitrogen) at 0.75 mg/ml or 0.5 mg/ml for 11-7 and Huh-luc/neo-ET cells, respectively.
EC50 values of single agent compounds and combinations were determined by HCV RNA detection using quantitative RT-PCR, according to the manufacturer's instructions, with a TaqMan® One-Step RT-PCR Master Mix Reagents Kit (Cat #AB 4309169, Applied Biosystems) on an ABI Model 7500 thermocycler. The TaqMan primers used for detecting and quantifying were obtained from Integrated DNA Technologies. HCV RNA was normalized to GAPDH RNA levels in drug-treated cells, which was detected and quantified using the Human GAPDH Endogenous Control Mix (Applied Biosystems, AB 4310884E). Total cellular RNA was purified from 96-well plates using the RNAqueous 96 kit (Ambion, Cat #AM1812). Chemical agent cytotoxicity was evaluated using an MTS assay according to the manufacturer's directions (Promega).
The compounds of the present invention can be effective against the HCV 1b genotype. It should also be understood that the compounds of the present invention can inhibit multiple genotypes of HCV. In one embodiment, compound of the present invention are active against the 1a, 1b, 2a, 2b, 3a, 4a, and 5a genotypes. […] EC50 ranges against HCV 1b are as follows: A>10 nM; B 1-10 nM; C<1 nM.

| Compound | EC50 [nM] |
| --- | --- |
| COC(=O)N[C@H](C(=O)N1CCC[C@H]1c1nc2cc(-c3ccc(-c4ccc5[nH]c([C@@H]6CCCN6C(=O)[C@@H](NC(=O)OC)C(C)(C)C)nc5c4)cc3)ccc2[nH]1)C(C)(C)C [Compound 372] | < 1 |
| COC(=O)N[C@H](C(=O)N1CCC[C@H]1c1nc2cc(-c3ccc(-c4ccc5[nH]c([C@@H]6CCCN6C(=O)[C@@H](NC(=O)OC)[C@@H](C)OC)nc5c4)cc3)ccc2[nH]1)[C@@H](C)OC [Compound 72] | < 1 |
| CO[C@@H](C(=O)N1CCC[C@H]1c1nc2cc(-c3ccc(-c4ccc5[nH]c([C@@H]6CCCN6C(=O)[C@H](OC)c6ccccc6)nc5c4)cc3)ccc2[nH]1)c1ccccc1 [Compound 20] | < 1 |
| CN(C)[C@@H](C(=O)N1CCC[C@H]1c1nc2cc(-c3ccc(-c4ccc5[nH]c([C@@H]6CCCN6C(=O)[C@@H](c6ccccc6)N(C)C)nc5c4)cc3)ccc2[nH]1)c1ccccc1 [Compound 2] | < 1 |
| COC(=O)N[C@@H](C(=O)N1CCC[C@H]1c1nc2cc(N3CCN(c4ccc5[nH]c([C@@H]6CCCN6C(=O)[C@H](NC(=O)OC)c6ccccc6)nc5c4)CC3)ccc2[nH]1)c1ccccc1 [Compound 354] | < 1 |
| COC(=O)N[C@@H](Cn1cccn1)C(=O)N1CCC[C@H]1c1nc2cc(-c3ccc(-c4ccc5[nH]c([C@@H]6CCCN6C(=O)[C@H](Cn6cccn6)NC(=O)OC)nc5c4)cc3)ccc2[nH]1 [Compound 114] | < 1 |
| COC(=O)N[C@H](C(=O)N1CCC[C@H]1c1nc2cc(-c3ccc(-c4ccc5[nH]c([C@@H]6CCCN6C(=O)[C@@H](NC(=O)OC)[C@@H](C)O)nc5c4)cc3)ccc2[nH]1)[C@@H](C)O [Compound 70] | < 1 |
| O=C(c1ccncc1)N1CCC[C@H]1c1nc2cc(-c3ccc(-c4ccc5[nH]c([C@@H]6CCCN6C(=O)c6ccncc6)nc5c4)cc3)ccc2[nH]1 [Compound 52] | > 10 |
| COC(=O)N[C@@H](C)C(=O)N1CCC[C@H]1c1nc2cc(-c3ccc(-c4ccc5[nH]c([C@@H]6CCCN6C(=O)[C@H](C)NC(=O)OC)nc5c4)cc3)ccc2[nH]1 [Compound 62] | < 1 |
| CC[C@H](NC(=O)OC)C(=O)N1CCC[C@H]1c1nc2cc(-c3ccc(-c4ccc5[nH]c([C@@H]6CCCN6C(=O)[C@H](CC)NC(=O)OC)nc5c4)cc3)ccc2[nH]1 [Compound 67] | < 1 |
| O=C([C@@H]1CCCO1)N1CCC[C@H]1c1nc2cc(-c3ccc(-c4ccc5[nH]c([C@@H]6CCCN6C(=O)[C@@H]6CCCO6)nc5c4)cc3)ccc2[nH]1 [Compound 25] | > 10 |
| CC(C)[C@H](NC(=O)OCc1ccccc1)C(=O)N1CCC[C@H]1c1nc2cc(-c3ccc(-c4ccc5[nH]c([C@@H]6CCCN6C(=O)[C@@H](NC(=O)OCc6ccccc6)C(C)C)nc5c4)cc3)ccc2[nH]1 [Compound 361] | > 10 |
| O=C([C@H]1CCCO1)N1CCC[C@H]1c1nc2cc(-c3ccc(-c4ccc5[nH]c([C@@H]6CCCN6C(=O)[C@H]6CCCO6)nc5c4)cc3)ccc2[nH]1 [Compound 26] | > 10 |
| COC(=O)N[C@H](C(=O)N1CCC[C@H]1c1nc2cc(-c3ccc(-c4ccc5[nH]c([C@@H]6CCCN6C(=O)[C@@H](NC(=O)OC)C6CC6)nc5c4)cc3)ccc2[nH]1)C1CC1 [Compound 78] | < 1 |
| COC(=O)N[C@@H](C(=O)N1CCC[C@H]1c1nc2cc(-c3ccc(-c4ccc5[nH]c([C@@H]6CCCN6C(=O)[C@H](NC(=O)OC)c6ccccc6)nc5c4)cc3)ccc2[nH]1)c1ccccc1 [Compound 3] | < 1 |
| COC(=O)N[C@H]1CC[C@H](C(=O)N2CCC[C@H]2c2nc3cc(-c4ccc(-c5ccc6[nH]c([C@@H]7CCCN7C(=O)[C@H]7CC[C@H](NC(=O)OC)CC7)nc6c5)cc4)ccc3[nH]2)CC1 [Compound 42] | > 10 |
| O=C(c1ccccn1)N1CCC[C@H]1c1nc2cc(-c3ccc(-c4ccc5[nH]c([C@@H]6CCCN6C(=O)c6ccccn6)nc5c4)cc3)ccc2[nH]1 [Compound 54] | > 10 |
| COC(=O)N[C@H](C(=O)N1CCC[C@H]1c1nc2cc(-c3ccc(-c4ccc5[nH]c([C@@H]6CCCN6C(=O)[C@@H](NC(=O)OC)C(C)C)nc5c4)cc3)ccc2[nH]1)C(C)C [Compound 83] | < 1 |
| COC(=O)N[C@@H](C(=O)N1CCC[C@H]1c1nc2cc(N3CC(=O)N(c4ccc5[nH]c([C@@H]6CCCN6C(=O)[C@H](NC(=O)OC)c6ccccc6)nc5c4)CC3=O)ccc2[nH]1)c1ccccc1 [Compound 357] | > 10 |
